Data set [1] relates to release of free radicals induced by glutamate in the striatum. Put plainly: In vivo intracerebral perfusion (striatum microdialysis), generation of radicals by injection of glutamate. To be noted: 1 mM in perfusion medium. From the text:
C) tests in vivo on intracerebral perfusion and generation of radicals by injection of glutamate.
Experimental preparation: [J. Neurosci. Methods, 72 (1997) 123-135]
The animals used are male rats of the Wistar strain weighing 250 g. Under general anaesthesia, the animals are placed in a stereotaxic apparatus. A cannula guide is introduced by microsurgery into the striatum (coordinates A : +0.02 cm; L: −0.30 cm and H: −0.65 cm relative to the 0 point defined according to Paxinos and Watson). Three to four screws are arranged on the animal's skull and the whole is fixed with dental cement (Durelon). After a recovery period during which the animals become used to the tester, a CMA 12 microdialysis cannula is inserted in the guide in such a way that the cellophane membrane projects 2 mm into the brain tissue. All the perfusions are effected on animals that are awake. A physiological solution (NaCl: 140 mM; KCl: 5 mM; […]: 3.9 mM), to which 250 μM of Na salicylate is added extemporaneously, is injected into the system at a constant flow rate of 1 μl.min^−1. […]
Salicylic acid present in the perfusion fluid reacts with the OH radicals released at the perfusion site, forming a compound, 2,3-dihydroxybenzoic acid (2,3-DBHA), which is specific to this reaction. This reaction product is quantified in each sample by high-performance liquid chromatography followed by Electrochemical Detection. […]

The subject of a further data set is astrocytes. Kind of data set: Recapture of glutamate by cultures of astrocytes, radicals generated by xanthine/xanthine oxidase (X/XO). It counts as cell-based, rats. Here is the method:
B) Procedure with cultures of astrocytes and generation of radicals by the xanthine/xanthine oxidase (X/XO) pair
400 μl of D-lysine at 25 μg/ml (9 ml of D-lysine at 100 μg per ml of borate buffer (0.1M pH 8.4)+27 ml of water) is placed in each well of 24-well culture plates. The wells are left in the stove (5% CO2, 37° C.) over night. Each well is rinsed with 2 times 750 μl of Hanks before receiving the culture medium. 3 lateral demi cortices are taken from rats aged 1 to 2 days. (The hippocampus, the striatum and the meninges are removed). The demi cortices are placed in 2 ml of trypsin-EDTA then put in the stove for 30 min. The action of the trypsin is stopped with 10% of decomplemented foetal calf serum (200 μl). The serum and the trypsin are removed then the cells are dissociated with a pipette in 10 ml of medium (MEM 225 ml+FCS-D 25 ml+glucose 20% 7.5 ml) (MEM=minimum essential medium; FCS-D=decomplemented foetal calf serum). The culture medium is made up to 30 ml, stirred and placed at 400 μl per well. The medium is changed twice weekly for 18 days. The last replacement is effected 4 days prior to the treatment, with a medium without decomplemented foetal calf serum. (MEM 31.5 ml+glucose 20% 1.05 ml).
Treatment takes place on the 18th or 19th day.
Each well is washed with 750 μl of buffer (NaCl 124 mM, KCl 4.6 mM, CaCl2 1.2 mM, MgCl2 1.3 mM, KH2PO4 0.416 mM, NaHCO3 26.75 mM, glucose 10 mM; pH 7.4) for 10 min. The cells are incubated in the presence of xanthine (500 μM) and of the test product (from 0 to 1 mM). After 10 min, xanthine oxidase is added (50 mU/ml) and it is again left to incubate for 10 min. Release of radicals is stopped by washing 3 times with catalase (3000 U/ml). The glutamate is then recaptured in a solution of radioactive glutamate (^3H) at 40 μM (isotopic dilution 1/20000). Recapture is stopped by washing 3 times with the cold buffer. The cells are detached with soda 0.2N and the radioactivity is measured.
Firstly we checked that the inhibition of recapture observed in the presence of X/XO is indeed due to a radical process. For this we replaced the test products with two enzymes: SOD (SuperOxide Dismutase) and catalase (FIG. 1). […] The Fenton reaction converting hydrogen peroxide to OH• is thus short-circuited. […] However, as there seems to be sufficient reducing agent in the medium to promote the formation of H2O2 starting from O2^•^−, it appears likely that a substantial proportion of H2O2 gives OH• (a highly reactive radical).
FIGS. 3 to 8 are the mean of at least 4 independent tests in which the protective power of IC180, IC023, IC241, IC2-16, IC178, IC140, IC209, IC237, IC146, IC193, IC194, IC242, IC207, IC2-19, IC219, IC2-21, and IC249, as a function of the dose, was tested against a fixed concentration of radicals, and therefore of X/XO. In the case of IC180, the increase in recapture appears to be linear (up to 100% is found in some tests). […] Since IC023 alone only becomes “toxic” starting from 1 mM, the variation observed starting from 0.6 mM might reflect the existence of metabolites that are poorly tolerated by the cells. The derivative morpholine IC180 is more interesting.

The results in this text go back to patent US6514967B1 (priority 1997, dated 2003).

Structures are written as SMILES.

Take `c1cc2c(s1)CCCC2N1CCOCC1` (stereo not shown) [IC180, morpholine-4-tetrahydro-4,5,6,7-benzothiophene]: in data set [1] (striatum, awake rats, 1.5 mM Na glutamate, FIG. 9), the “release of free radicals induced by glutamate (2,3-dihydroxybenzoic acid)” value was “Blocking”. Besides, in data set [1] (response restored a week later), the “toxic side effect of introduction in situ” value is listed as “did not have a toxic side effect”. Also, the “increase in recapture of glutamate, highest found” value in the data set with astrocytes (fixed concentration of X/XO, dose-dependent, found in some tests) is on record as “up to 100%”. In addition, the “effect of the product alone on recapture” value in the data set on astrocytes (without the presence of X/XO) is “no effect on recapture”.
